We go through one compound from publication PMC3561363, “A Novel Retro-Inverso Peptide Inhibitor Reduces Amyloid Deposition, Oxidation and Inflammation and Stimulates Neurogenesis in the APPswe/PS1ΔE9 Mouse Model of Alzheimer’s Disease” (PLoS ONE, 2013).

The subject of experiment [1] is Aβ42. In words: Thioflavin T (ThT) assay for Aβ fibrils. Format: biochemical. As for the experimental part: This method was the same as that published previously. Briefly, 60 µl samples of solutions containing Aβ42 (25 µM), ThT (15 µM) and between 0 and 125 µM RI-OR2 or RI-OR2–TAT, in 10 mM phosphate buffered saline (PBS), pH 7.4, were incubated in sealed, black, clear-bottomed 384-well plates (Corning). ThT fluorescence was monitored every 10 mins (λex = 442 nm, λem = 483 nm) for 48 h at 30°C in a Biotek Synergy 2 plate reader.

Experiment [2] concerns Aβ42. In words: Immunoassay for Aβ oligomers (in vitro), 6E10/biotinylated 6E10 sandwich. The settings on record: 2∶1 and 1∶1 molar ratios of inhibitor:Aβ42; 12.5 µM Aβ42, PBS pH 7.4, 25°C, even at earliest time points 4 and 8 h. Format: biochemical. As for the experimental part: This is a more sensitive test than the ThT assay for the detection of early oligomeric forms of Aβ [16]. Microtitre plates (96-well, Maxisorb) were coated with 6E10, diluted 1∶1000 in 10 mM PBS, pH 7.4, for overnight at 4°C. The plates were blocked with assay buffer (Tris-buffered saline (TBS) (pH 7.4), containing 0.05% γ-globulins and 0.005% Tween 20) plus 5% gelatine for 1 h at 37°C. Samples of peptide (12.5 µM Aβ42 and 0, 3.125, 6.25, 12.5, 25 or 62.5 µM RI-OR2–TAT in 10 mM PBS, pH 7.4) were incubated at 25°C for 0, 4, 8, 24 or 48 h, diluted to 1 µM Aβ, and plated in triplicate. The plates were incubated for 1 h at 37°C and then washed with PBS plus 0.05% Tween-20 (PBST). A 1∶1,000 dilution of biotinylated 6E10 was then added to each well, left for 1 h at 37°C, and the plates were washed with PBST. Europium-linked streptavidin was then added to the wells at 1∶500 dilution in StrepE buffer (TBS containing 20 µM DTPA, 0.5% bovine serum albumin, and 0.05% γ-globulins), incubated for 1 h, and washed as before. Enhancer solution was added and the plates were read on a Wallac Victor 2 plate reader, using the time-resolved fluorescence setting for europium.

For experiment [3], the system named is Aβ42. In words: Atomic force microscopy (AFM) of Aβ42 aggregation. The settings on record: 1∶2 molar ratio RI-OR2-TAT:Aβ42 (12.5 µM:25 µM), 24 h, PBS pH 7.4. The format is biochemical. As for the experimental part:
Aβ42 was incubated at 25 µM in the presence or absence of 12.5 µM RI-OR2-TAT in PBS, pH 7.4, for 24 h. Samples were diluted 1∶10 in PBS and then a 2 µl aliquot was deposited onto the surface of freshly cleaned mica and allowed to dry. Images were obtained in tapping mode using a Multimode™ SPM NanoScope IIIa microscope (Digital Instruments, New York, USA). Silicon cantilever tips measuring 125 µm long, 30 µm wide and with a tip radius <10 nm were used (Budget Sensors, Bulgaria). The resonance frequency was 300 kHz and force constants 40 N/m. All images were first order flattened and edited using WSxM 5.0 Develop 4.3 software, (Nanotech, Madrid, Spain).

A further experiment addresses Aβ42 fibrils (Homo sapiens, UniProt P05067). Briefly: Surface plasmon resonance (SPR), immobilized Aβ42 fibrils. The format is binding. On the procedure: These experiments were conducted using a Sensi Q semi-automatic SPR machine (ICx Nomadics). This apparatus has two parallel flow cells; one was used to immobilize Aβ42 fibrils while the other was used as “reference” (empty surface). A COOH5 sensor chip (ICx Nomadics) was employed for this purpose and the peptide was immobilized by amine coupling chemistry. Briefly, after surface activation, the peptide preparation was diluted to 10 µM in acetate buffer (pH 4.0) and then injected for 5 min at a flow rate of 30 µl/min. Any remaining activated groups were blocked with ethanolamine (pH 8.0). The final immobilization level was ∼5,000 resonance units (1 RU = 1 pg of protein/mm^2). The empty “reference” surface was prepared in parallel using the same immobilization procedure, but without addition of the peptide. Sensorgrams were then obtained via injection of three different concentrations of RI-OR2–TAT (1, 3 and 6 µM), as well as the vehicle (PBS with 0.005% Tween 20), over the immobilized ligand or control surface, in parallel. These SPR data can be interpreted to provide an estimate for the affinity of binding of the inhibitors to Aβ fibrils, [28]. Data for the three concentrations of RI-OR2-TAT were fitted separately by Qdat software [ICx Nomadics] using the 1∶1 pseudo-first order Langmuir interaction model. Eq. 1 was used to fit the association while the dissociation was fitted by eq. 2. The rate constants (kon and koff) were used to calculate kd as reported in eq. 3. [drawing 1] (1) [drawing 2] (2) [drawing 3] (3) Where Rt is binding response at time t; C is the molar concentration of the analyte at the interaction surface at time t; Rmax is the maximal binding response; R0 is the binding response at time t0 (i. e. time at the onset of the dissociation phase); kon is the association rate constant; koff is the dissociation rate constant. Values were expressed as a mean ± SD.
In general terms: SPR reads the build-up and loss of mass on a sensor chip optically.

Experiment [4] has as its system SHSY-5Y neuroblastoma cells exposed to pre-aggregated Aβ42. In words: Protection against Aβ42 toxicity, LDH assay. The format is cell-based. As to conditions: 0.5, 1, 5 or 10 µM inhibitor, 5 µM pre-aggregated Aβ42, 24 h, Optimem. As for the experimental part: For cell toxicity assays, SHSY-5Y neuroblastoma cells were maintained in 10% Fetal Calf Serum supplemented Dulbecco’s Modified Eagle Medium (DMEM, Gibco) under standard mammalian cell culture conditions. The cells were transferred to sterile 96-well growth plates at 20,000 cells/well and 4 wells per condition. To test for any toxic effects of RI-OR2–TAT alone on the cells, they were left to adhere for 24 h before the addition of the inhibitor (at 12.5, 25, 50, 100 and 200 µM), in DMEM. To assess the ability of RI-OR2–TAT to protect against Aβ toxicity, the cell growth medium was changed to Optimem (Invitrogen) and Aβ42, pre-aggregated (at 100 µM) for 24 h at 25°C in PBS, was added to the cells at a concentration of 5 µM, together with various amounts (0, 0.1, 0.5, 1, 5 or 10 µM) of RI-OR2–TAT. In each case, after a further 24 h incubation period, the viability of the cells was assessed using a CytoTox 96® Non-Radioactive Cytotoxicity Assay (LDH) Assay (Promega) kit.

The subject of experiment [5] is doublecortin-expressing neurons in APP/PS1 mouse dentate gyrus. In words: Young immature neurons, doublecortin immunostaining, dentate region. The format is in vivo. The settings on record: 100 nmol/kg i.p. once daily, 21 days, 10 months old APP/PS1 mice, vs saline, p<0.0001, 4 animals per group.

Where a SMILES comes first, the peptide text is derived from it.

Aβ42 fibrils, sequence (P05067 672-713 limits assumed): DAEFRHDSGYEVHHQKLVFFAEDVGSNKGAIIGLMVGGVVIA

Regarding `CC(=O)N[C@H](CCCNC(=N)N)C(=O)NCC(=O)N[C@H](Cc1ccccc1)C(=O)N[C@H](Cc1ccccc1)C(=O)N[C@@H](C(=O)N[C@H](CC(C)C)C(=O)N[C@H](CCCCN)C(=O)NCC(=O)N[C@H](CCCNC(=N)N)C(=O)N[C@H](CCCNC(=N)N)C(=O)N[C@H](CCCNC(=N)N)C(=O)N[C@H](CCCNC(=N)N)C(=O)N[C@H](CCC(N)=O)C(=O)N[C@H](CCCNC(=N)N)C(=O)N[C@H](CCCNC(=N)N)C(=O)N[C@H](CCCCN)C(=O)N[C@H](CCCCN)C(=O)N[C@H](CCCNC(=N)N)C(=O)NCC(=O)N[C@H](Cc1ccc(O)cc1)C(N)=O)C(C)C` [RI-OR2-TAT, Ac-rGffvlkGrrrrqrrkkrGy-NH2] (HELM PEPTIDE1{[ac].[dR].G.[dF].[dF].[dV].[dL].[dK].G.[dR].[dR].[dR].[dR].[dQ].[dR].[dR].[dK].[dK].[dR].G.[dY].[am]}$$$$V2.0), in the experiment with Aβ42 [1] (48 h, 25 µM Aβ42, PBS pH 7.4, same molar ratios), the “ThT inhibition compared with RI-OR2” value is “slightly better inhibitor than RI-OR2”. Further, the “ThT fluorescence after incubation of Aβ42 with inhibitor” value with Aβ42 [1] (48 h, 30°C, 25 µM Aβ42, 15 µM ThT, 10 mM PBS pH 7.4, molar ratios 1∶1, 1∶2, 1∶4 and 1∶10 (inhibitor:Aβ42)) is recorded as “lower fluorescence”. For the same compound, the “inhibition of Aβ42 aggregation (Fig. 1)” value in the experiment on Aβ42 [1] (ThT, 25 µM Aβ42, 48 h, figure title) was “inhibit the aggregation of Aβ42”. The “development of immunoassay signal (oligomer formation)” value with Aβ42 [2] is listed as “considerably reduced the development of an immunoassay signal”. For the same compound, the “inhibition of oligomer formation by AFM” value with Aβ42 [3] is “clear inhibition of oligomer formation”. Further, on Aβ42 fibrils (Aβ42 fibrils, SPR, RI-OR2 value from ref 16), the “fold lower kd than previously reported for RI-OR2” value was ~100 -fold. Besides, on Aβ42 fibrils (SPR, 1, 3 and 6 µM, 1∶1 Langmuir model, PBS with 0.005% Tween 20, mean ± SD, read-out: koff (dissociation rate constant)), the off-rate constant (koff) – broadly, a measure of how fast the partners let go of each other – amounted to 0.00037 ± 0.00015 s⁻¹. Further, the kon (in general, the rate constant with which the complex forms) on Aβ42 fibrils (SPR, 1, 3 and 6 µM, 1∶1 Langmuir model, PBS with 0.005% Tween 20, mean ± SD, read-out: kon (association rate constant)) worked out at 3680 ± 615 M⁻¹ s⁻¹. The Kd at Aβ42 fibrils (SPR, Aβ42 fibrils, from koff and kon, 1∶1 Langmuir model, three concentrations fitted separately, read-out: kd (calculated apparent affinity)) was 0.058 to 0.125 µM. Further, the “protection against toxic effects of pre-aggregated Aβ42” value in experiment [4] was “protected against the toxic effects”. Further, the “increase in mean number of young doublecortin-expressing neurons” value in experiment [5] worked out at 210%.
